The record followed here is US20140066410A1, “INHIBITORS OF BROMODOMAINS AS MODULATORS OF GENE EXPRESSION” (ICAHN SCHOOL OF MEDICINE AT MOUNT SINAI, priority 2011, published 2014).

The test system of series [1] is p53 target genes. Briefly: RT-PCR array of p53 signaling pathway genes in U20S cells. Type of series: cell-based. Here is the method: The selectivity of ischemin in transcription inhibition of p53 target genes was evaluated using a RT-PCR array analysis of RNA isolated from biological samples of U20S cells. The array was performed on RNA isolated from three different biological repeats in U20S cells using a set of primers selected for a group of genes that are known to be associated within p53 signaling pathways. The differentially expressed genes in treated related to untreated groups, i.e. doxorubicin treated versus untreated, or doxorubicin plus ischemin versus doxorubicin alone, were subjected to pathway analysis by using the Ingenuity System software. The fold changes of these genes were converted to log2Ratio and then imported into IPA tool along with gene symbols. The enriched pathways in the gene list were identified by Fisher exact test at p value of 0.05 and visualized in Canonical pathway explorer.

Series [2] concerns p53. The series can be described thus: Western blot of doxorubicin-treated U20S cells. Type of series: cell-based. On the procedure: U20S cells were harvested cells and lysed in lysis buffer (20 mM Tris (pH 8.0), 150 mM NaCl, 1 mM EGTA, 1% Triton X-100, and 50 mM NaF) containing protease inhibitor cocktail (Sigma). The cells were sonicated and spun down at 14,000 rpm for 30 min at 4° C. After protein estimation, 30-50 micrograms of lysates were subjected to SDS-PAGE, transferred onto nitrocellulose membranes, blocked with 5% milk/PBS and blotted with a primary antibody. Horse radish peroxidase-labeled secondary antibodies (goat anti-Mouse or anti-Rabbit) were added for 60 min at room temperature, and the blots were washed with TBS (20 mM Tris, 150 mM Nacl, and 0.05% tween −20) and subjected to autoradiography after development of reaction by ECL (GE health care).
The biochemical effects of ischemin on p53 stability and function as transcription factor was examined. U20S cells were incubated in the presence of doxorubicin with or without ischemin at concentration of 50 or 100 μM for 24 hours. Subsequently, cellular proteins were subjected to western blot analysis (as described above).
As a transcription factor, p53 ability to activate gene expression is also dependent upon chromatin modifications. Since CBP acetylates both histones and p53, the possible changes of epigenetic marks on p53 and global histones in presence of ischemin was evaluated.
For orientation: Immunoblotting shows a protein as a band on a membrane.

Series [3] deals with caspase 3/7. The series can be described thus: Caspase 3/7 assay in cardiomyocytes. Conditions: doxorubicin-induced. Type of series: cell-based, rat. Here is the method:
Neonatal rat ventricular myocytes (NRVMs) were isolated by enzymatic dissociation of cardiac ventricle from 1-to-2-day-old Sprague-Dawley pups using the Worthington neonatal cardiomyocyte isolation system (Worthington). Briefly, the pups were anesthetized and their hearts were excised. The ventricular tissues were minced in ice cold HBSS and then digested with trypsin overnight at 4° C. followed by collagenase treatment for 45 min at 37° C. Cells were collected by centrifugation at 800 rpm for 5 min and subsequently underwent two rounds of preplating on culture dishes to minimize nonmyocyte contamination. The enriched cardiomyocytes were cultured in DMEM/F12 nutrient mixture (Invitrogen) with 10% horse serum and 5% fetal calf serum (Invitrogen). After 48 hours, the medium was changed to DMEM/F12 containing 1% insulin, transferrin, and selenium media supplement (ITS; Invitrogen) and 0.1% BSA.
Caspase 3/7 and TUNEL assays were performed to assess inhibition of apoptosis by ischemin. Caspase assay and TUNEL assays were performed using Caspase-Glo 3/7 and DeadEnd kits from Promega. Caspase assay was performed on live cardiomyocytes in 96 wells plate on three different days. Similarly, TUNEL assay was performed in triplicate on three different days. […] After treatment with compounds overnight and then doxorubicin for 24 hours, the intensities of luminecnce were read. […]

Series [4] deals with CBP/p300. The series can be described thus: Fluorescence-based lysine acetyltransferase assay with histone H3 peptide substrate. Type of series: biochemical. Conditions: data not shown. The source says:
(§1) The latter argues that ATM is active in presence of ischemin, which is consistent with our analysis using Western blots (FIG. 2B).

The subject of series [5] is p53. Briefly: Immunoblot of doxorubicin-treated primary neonatal rat cardiomyocytes. Type of series: cell-based.
From the text: FIG. 4. Ischemin functions a cellular protective agent against myocardial ischemic stress. (A) TUNEL assay showing ischemin inhibition of doxorubicin-induced apoptosis in rat neonatal cardiomyocytes. (B) Evaluation of ischemin effects in U20S cells and cardiomyocytes. The immunoblots show down-regulation of doxorubicin-induced activated p53 in both cell types in the presence of ischemin, while levels of H2XS139p remained the same. (C) Inhibition of doxorubicin-induced caspase 3/7 activation in cardiomyocytes by ischemin.
as §1

The target of series [6] is CBP BRD (Homo sapiens, UniProt Q92793). Briefly: Bromodomain binding affinity (tryptophan fluorescence binding assay). To be noted: over PCAF, BRD41, BAZ1B and BAZ2B. On the procedure:
Monitoring change of intrinsic tryptophan fluorescence of a protein induced by ligand binding can be used to determine ligand binding affinity (KD). This assay was used to assess ligand binding to the CBP BRD and ischemin binding to the BRDs from other transcription proteins as follows. The chemical ligands were prepared at 500-850 μM in the PBS buffer. Their serial dilutions by a factor of 1.5 in a 384-wells black plate were carried out using a Tecan EVO200 liquid handler down to a concentration of 0.5 nM. Protein was added to the compounds to a final concentration in each well of 5 μM. Tryptophan fluorescence of the protein was measured (with excitation set at 280 nm, emission at 350 nm) on a Tecan Safire2 reader. Inner filter correction was introduced to take into account the possible intrinsic fluorescence of the compound. […] KD was calculated based on the curve fitting.

Series [7] deals with U20S cells. Briefly: BRDU incorporation / cell cycle analysis. Type of series: cell-based. Here is the method:
BRDU incorporation assay for cell cycle evaluation was performed in 96 well plates using calorimetric based kit from Calbiochem (Cat# QiA58). Hundred microliter of 1×10^5/ml cells were plated in DMEM media (Mediatech) with 10% fetal bovine serum (FBS). After 12 hours cells were treated with compounds ischemin and MS 119 (50 μM) with or without doxorubicin treatment (5 μM). The controls were DMSO and untreated cells. BRDU was added for 24 hours treatment. After 24 hours cells were fixed and treated with anti-BRDU antibody. After washings, the wells were incubated with peroxidase. After final wash, the color was developed using TMB as substrate and the reaction was stopped with stop solution and optical density was estimated at 450 nm.
DNA damage induced by doxorubicin leads to p53 stimulated cellular responses including cell cycle arrest, damage repair, and apoptosis. To determine the effect of ischemin on dividing U20S cells, U20S cells were treated with 5-bromo-2-deoxyuridine (BRDU) and the incorporated BRDU during in DNA synthesis was measured using an ELISA assay.

[8] abbreviates: ischemin 50 or 100 μM, 24 hours, U20S cells.
Setting [9] is: nuclear extracts from U20S cells.

SMILES strings stand for the structures. “Also recorded” adds a separate entry of the source.

Chain of CBP BRD (Q92793 1085-1192 limits assumed): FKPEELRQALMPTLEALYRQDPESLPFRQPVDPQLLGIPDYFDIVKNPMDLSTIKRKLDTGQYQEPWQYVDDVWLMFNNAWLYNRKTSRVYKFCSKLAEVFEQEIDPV

For `Cc1cc(/N=N/c2cc(S(=O)(=O)O)c(C)cc2C)c(N)cc1O` [Ischemin/MS120, 5-(2-amino-4-hydroxy-5-methylphenylazo)-2,4-dimethylbenzenesulfonic acid], the “Doxorubicin-induced expression of p53 target genes (CCNE2, CCNG2, CDC2, CDC25A, CDKN1A, CDKN2A, GADD45A, E2F1, E2F3, PCNA, SESN1, SESN2)” value in series [1] is given as “differentially reduce”. Besides, the “Level or functional phosphorylation state of ATM and CHK1” value in series [2] (U20S cells, doxorubicin) was “did not affect”. Besides, in series [2] (setting [8]), the “Expression of p53 target genes p21, PUMA and 14-3-3s induced by doxorubicin” value is given as “significantly decreased”; the “Levels of p53 protein, p53S15p and p53K382ac induced by doxorubicin” value is recorded as “marked reduction”. Besides, in series [2] (setting [9]), the “H3 acetylation at Lys9” value is on record as “decrease” and the “Histone H3 phosphorylation at Ser10” value is given as “increase”. In addition, the “Caspase 3/7 activity” value in series [3] is on record as “inhibiting caspase 3/7 activity in a dose-dependent manner”. The “Direct inhibition of lysine acetyltransferase activity of CBP/p300” value in series [4] is recorded as “ruled out”. Besides, in series [5], the “Doxorubicin induced p53 activation” value is “able to inhibit” and the “H2AX phosphorylation at Ser139” value is given as “did not alter”. Further, in series [6], the “Selectivity for the CBP BRD over other human BRDs” value was “up to five-fold selectivity”. Also, in series [7] (50 μM), the “Toxicity to U20S cells” value is “not toxic”. In addition, the “Prevention of doxorubicin-induced cell cycle arrest (decrease of BRDU incorporation)” value in series [7] (compound 50 μM, doxorubicin 5 μM, U20S cells) is “almost completely prevented; also recorded: prevents a doxorubicin-induced decrease of BRDU incorporation”.
